Test [1] has as its system SH-SY5Y. Kind of test: Neuroprotective activity in human SH-SY5Y cells assessed as inhibition of potassium-induced Ca2+ increase at 10 uM preincubated for 15 mins followed by potassium addition measured for 14 seconds by fluorescence assay relative to control. Type of test: functional.
Test [2] concerns SH-SY5Y. Kind of test: Neuroprotective activity in human SH-SY5Y cells under serum-free condition assessed as protection against potassium-induced toxicity at 5 uM after 24 hrs by MTT assay relative to control. Type of test: functional. (Tetrazolium dyes change colour on reduction, which living cells bring about.)
Test [3] concerns SH-SY5Y. Kind of test: Neuroprotective activity in human SH-SY5Y cells under oxygen and glucose deprived condition assessed as cell survival at 5 uM co-incubated for 4 hrs under anaerobic condition measured after 20 hrs by MTT assay relative to control. Type of test: functional. Conditions: read-out: Survival.
Test [4] relates to SH-SY5Y. Description: Neuroprotective activity in human SH-SY5Y cells under oxygen and glucose deprived condition assessed as protection against oxidative stress at 5 uM co-incubated for 4 hrs under anaerobic condition measured after 20 hrs by MTT assay relative to control. Type of test: functional.
Test [5] has as its system SH-SY5Y. Description: Neuroprotective activity in human SH-SY5Y cells under serum-free condition assessed as cell survival at 5 uM after 24 hrs by MTT assay in presence of potassium relative to control. Type of test: functional. Conditions: read-out: Survival.
The test system of test [6] is SH-SY5Y. Description: Neuroprotective activity in human SH-SY5Y cells assessed as inhibition of potassium-induced Ca2+ increase preincubated for 15 mins followed by potassium addition measured for 14 seconds by fluorescence assay. Type of test: functional, cell-based.
The test system of test [7] is SH-SY5Y. Kind of test: Neuroprotective activity in human SH-SY5Y cells under serum-free condition assessed as protection against potassium-induced toxicity at 0.3 uM after 24 hrs by MTT assay relative to control. Type of test: functional.
The subject of test [8] is SH-SY5Y. Description: Neuroprotective activity in human SH-SY5Y cells under oxygen and glucose deprived condition assessed as protection against oxidative stress at 0.3 uM co-incubated for 4 hrs under anaerobic condition measured after 20 hrs by MTT assay relative to control. Type of test: functional.
The test system of test [9] is SH-SY5Y. Description: Neuroprotective activity in human SH-SY5Y cells under oxygen and glucose deprived condition assessed as cell survival at 0.3 uM co-incubated for 4 hrs under anaerobic condition measured after 20 hrs by MTT assay relative to control. Format: functional. Conditions: read-out: Survival.
Test [10] deals with SH-SY5Y. Kind of test: Neuroprotective activity in human SH-SY5Y cells under serum-free condition assessed as cell survival at 0.3 uM after 24 hrs by MTT assay in presence of potassium relative to control. Conditions: read-out: Survival. Type of test: functional.
In test [11] the test system is SH-SY5Y. Kind of test: Neuroprotective activity in human SH-SY5Y cells under oxygen and glucose deprived condition assessed as cell survival at 0.1 uM co-incubated for 4 hrs under anaerobic condition measured after 20 hrs by MTT assay relative to control. Format: functional. Particulars: read-out: Survival.
Test [12] deals with SH-SY5Y. Description: Neuroprotective activity in human SH-SY5Y cells under oxygen and glucose deprived condition assessed as protection against oxidative stress at 0.1 uM co-incubated for 4 hrs under anaerobic condition measured after 20 hrs by MTT assay relative to control. Format: functional.

As a reminder, the inhibition is the relative decrease from the control value, in per cent. The IC50 is the concentration needed to halve the response being measured.

Take `CCOC(=O)C1=C(C)NC(c2ccc(C)cc2)=CC1c1cccs1` (stereo unspecified): in the test with SH-SY5Y [1], the inhibition at 10 µM came to 36.6%. Also, the values for the Activity with SH-SY5Y [2] and in the test on SH-SY5Y [4] were 50.73% and 31.04%, respectively. In addition, the viability at 5 µM stood at 64.7% in the test on SH-SY5Y [3] and 75.6% in the test with SH-SY5Y [5].

Turning to `CC1=C(C(=O)SC(C)(C)C)C(/C(C)=C/c2ccccc2)C=C(c2ccccc2)N1` (stereo unspecified), the inhibition at 10 µM in the test on SH-SY5Y [1] turned out to be 40%. Also, the Activity was 35.26% in the test on SH-SY5Y [2] and 35.82% with SH-SY5Y [4]. Further, the viability at 5 µM in the test on SH-SY5Y [3] was 63.9%; in the test on SH-SY5Y [5], 69%.

Consider `CC1=C(C(=O)SC(C)(C)C)C(c2ccccc2)C=C(c2ccccc2)N1` (stereo unspecified), for which, in the test with SH-SY5Y [1], the inhibition at 10 µM was 35.1%. In addition, the values for the Activity in the test with SH-SY5Y [2] and in the test with SH-SY5Y [4] were 34.13% and 24.91%, respectively. Besides, the viability at 5 µM turned out to be 61.5% in the test on SH-SY5Y [3] and 68% in the test with SH-SY5Y [5].

Take `CC1=C(C(=O)SC(C)(C)C)C(c2ccc(Br)cc2)C=C(c2ccc(C)cc2)N1` (stereo unspecified): the inhibition at 10 µM in the test with SH-SY5Y [1] came to 35.4%. In addition, the Activity with SH-SY5Y [2] is listed as 34.46%; in the test with SH-SY5Y [4], 21.83%. Besides, the results for the viability at 5 µM with SH-SY5Y [3] and in the test with SH-SY5Y [5] were 60.3% and 67.2%, respectively.

Regarding `COc1ccc(C2C=C(c3ccccc3)NC(C)=C2C(=O)SC(C)(C)C)cc1` (stereo unspecified), in the test with SH-SY5Y [1], the inhibition at 10 µM came to 52.3%. Further, the figures for the Activity in the test on SH-SY5Y [2] and in the test with SH-SY5Y [4] were 31.27% and 17.38%, respectively. For the same compound, the viability at 5 µM was 57.6% in the test on SH-SY5Y [3] and 66.7% in the test with SH-SY5Y [5]. For the same compound, the half-maximal inhibitory concentration (IC50) in the test on SH-SY5Y [6] amounted to 26.8 µM. In the test on SH-SY5Y [6], the inhibition result is “Dose-dependent effect”.

For the compound `CCOC(=O)C1=C(C)NC(c2ccccc2)=CC1c1ccccc1` (stereo unspecified), the inhibition at 10 µM in the test with SH-SY5Y [1] turned out to be 32.5%. Further, the Activity was found to be 34.65% in the test on SH-SY5Y [2] and 22.76% in the test on SH-SY5Y [4]. Besides, the viability at 5 µM in the test on SH-SY5Y [3] was found to be 60.8%; with SH-SY5Y [5], 67.6%.

On to `O=C1CCCC2=C1C(c1ccccc1)C=C(c1ccccc1)N2` (stereo unspecified), for which, in the test on SH-SY5Y [1], the inhibition at 10 µM was found to be 41.2%. Further, the results for the Activity with SH-SY5Y [2] and in the test with SH-SY5Y [4] were 28.23% and 26.8%, respectively. Moreover, the viability at 5 µM in the test with SH-SY5Y [3] was 62.1%; in the test with SH-SY5Y [5], 66.4%.

For `CC1=C(C(=O)SC(C)(C)C)C(c2ccc(C)cc2)C=C(c2ccc(C)cc2)N1` (stereo unspecified), the inhibition at 10 µM in the test on SH-SY5Y [1] is 12.6%. The Activity in the test on SH-SY5Y [2] came out at 36.24%; with SH-SY5Y [4] it was 12.66%. Besides, the viability at 5 µM in the test on SH-SY5Y [3] stood at 56%; in the test on SH-SY5Y [5], 69.8%.

`CC(=O)C1=C(C)NC(c2ccccc2)=CC1c1ccccc1` (stereo unspecified): in the test with SH-SY5Y [1], the inhibition at 10 µM is 33.8%. In addition, the Activity was determined as 32.46% in the test on SH-SY5Y [2] and 9.06% with SH-SY5Y [4]. The results for the viability at 5 µM in the test with SH-SY5Y [3] and with SH-SY5Y [5] were 53.9% and 67.4%, respectively.

`CCOC(=O)C1=C(CC)NC(c2ccccc2)=CC1c1ccccc1` (stereo unspecified): the inhibition at 10 µM in the test on SH-SY5Y [1] is 53.8%. Further, the Activity in the test with SH-SY5Y [2] was found to be 31.37%; with SH-SY5Y [4] it was 17.69%. In addition, the figures for the viability at 5 µM with SH-SY5Y [3] and with SH-SY5Y [5] were 57.6% and 67.3%, respectively. Also, in the test with SH-SY5Y [6], the IC50 amounted to 12.8 µM. In addition, the inhibition entry in the test on SH-SY5Y [6] is “Dose-dependent effect”.

Regarding `COC(=O)C1=C(C)NC(C)=C(C(=O)OC)C1c1ccccc1[N+](=O)[O-]` [NIFEDIPINE], the Activity in the test on SH-SY5Y [7] is 15.76%; with SH-SY5Y [8], 12.4%. The inhibition at 10 µM in the test with SH-SY5Y [1] was 59.8%. For the same compound, the results for the viability at 0.3 µM with SH-SY5Y [9] and in the test with SH-SY5Y [10] were 55% and 58.7%, respectively.

For `CCOC(=O)C1=C(C)NC(c2ccc(Cl)cc2)=CC1c1ccccc1` (stereo unspecified), the inhibition at 10 µM in the test with SH-SY5Y [1] was determined as 44.9%. The Activity with SH-SY5Y [2] is 36.57%; with SH-SY5Y [4], 19.26%. The viability at 5 µM in the test on SH-SY5Y [3] worked out at 58.9%; with SH-SY5Y [5] it was 69.3%.

With `CC1=C(C(=O)SC(C)(C)C)C(c2ccc(C)cc2)C=C(c2ccccc2)N1` (stereo unspecified), the inhibition at 10 µM in the test with SH-SY5Y [1] is 36.8%. For the same compound, the figures for the Activity in the test on SH-SY5Y [2] and in the test on SH-SY5Y [4] were 30.44% and 31.16%, respectively. Also, the viability at 5 µM stood at 64.7% in the test with SH-SY5Y [3] and 67.4% in the test on SH-SY5Y [5].

As for `COc1ccc2[nH]cc(CCNC(C)=O)c2c1` [MELATONIN], in the test on SH-SY5Y [11], the viability at 0.1 µM worked out at 65.8%. In addition, in the test on SH-SY5Y [12], the Activity came out at 28.85%.

The values are drawn from ChEMBL document CHEMBL3217626, “Identification of 4,6-diaryl-1,4-dihydropyridines as a new class of neuroprotective agents” (Medchemcomm, 2013).
